# Tested on: BN-130 strain
# Assay: Susceptibility of the BN-130 strain to antibiotics
# Format: cell-based, Pseudomonas stutzeri
row,Compound,Susceptibility to antibiotics
1,CC1(C)S[C@@H]2[C@H](NC(=O)[C@H](N)c3ccccc3)C(=O)N2[C@H]1C(=O)O [aminobenzylpenicillin],Resistant
2,CN(C)[C@@H]1C(O)=C(C(N)=O)C(=O)[C@@]2(O)C(O)=C3C(=O)c4c(O)cccc4[C@@](C)(O)[C@H]3C[C@@H]12 [Tetracycline],Susceptible
3,colistin,Susceptible
4,O=C(Cc1cccs1)N[C@@H]1C(=O)N2C(C(=O)[O-])=C(C[n+]3ccccc3)CS[C@H]12 [cephaloridine],Resistant
5,O=C(N[C@H](CO)[C@H](O)c1ccc([N+](=O)[O-])cc1)C(Cl)Cl [Chloramphenicol],Susceptible to a medium degree
6,[H]/N=C(/N)N[C@H]1[C@H](O)[C@@H](O)[C@H](O[C@@H]2O[C@@H](C)[C@](O)(C=O)[C@H]2O[C@@H]2O[C@@H](CO)[C@H](O)[C@@H](O)[C@@H]2NC)[C@@H](N/C(N)=N\[H])[C@@H]1O [streptomycin],Susceptible to a medium degree
7,CC1(C)S[C@@H]2[C@H](NC(=O)Cc3ccccc3)C(=O)N2[C@H]1C(=O)O [Penicillin],Resistant
8,NC[C@H]1O[C@H](O[C@H]2[C@H](O)[C@@H](O[C@H]3O[C@H](CO)[C@@H](O)[C@H](N)[C@H]3O)[C@H](N)C[C@@H]2N)[C@H](O)[C@@H](O)[C@@H]1O [kanamycin],Susceptible to a medium degree
9,CCn1cc(C(=O)O)c(=O)c2ccc(C)nc21 [nalidixic acid],Susceptible
10,polymixin,Susceptible

# Source: patent US4027014A, “Antibiotic BN-130 substances and the production thereof” (Meiji Seika Kaisha, Ltd., priority 1974, dated 1977)
